# Positions of bridges follow the written chain, without caps; N, C: chain ends. Residues, ends and D or L forms follow the SMILES beside them. *: point of attachment. X1 = N[C@@H](CSC1CC(=O)N(CC2CCC(C(=O)NCCCCC(C(=O)O)N(CCN(CC(=O)O)CC(=O)O)CCN(CC(=O)O)CC(=O)O)CC2)C1=O)C(=O)*
# Experiments:
# in vitro = in vitro ADME; conditions: human, whole blood
# Experimental: ^111[…], or ^111In-co(NGR)4 was added to […] human blood in heparin (BD Biosciences, […], The Netherlands). Blood stability was tested at 0, 10, 30, and 50 min. For each time point imaging agents were separated from blood cells and proteins by adding 0.5 mL MeCN (VWR International BV, Breda, The Netherlands) to 0.5 mL blood sample followed by centrifugation (2,000 ×g, 3 min). Supernatant samples were analyzed by HPLC using the above-mentioned method.
# [1] = Octanol/water partition coefficient (logP); assay type: physicochemical; conditions: 111In-labeled tracer, separate experiment 2 of 3, N = 3, method as ref 22
# Experimental: The logP value of each compound was determined in three separate experiments as described previously.
# [2] = Micro-SPECT myocardial perfusion, SUV of 99mTc-sestamibi in heart segments; assay type: in vivo, Swiss mice; conditions: i.v., last of 4 15-min SPECT frames, mean ± SEM
# Experimental: In 10–12-week-old male Swiss mice, we induced MI by ligation of the left anterior descending coronary artery (LAD) as described before to test coNGR (n = 5) or co(NGR)4 (n = 8). […] SPECT imaging was performed 7 days after MI or sham surgery. All animals were held under the guidelines of the animal care facility (Maastricht University). All animal experiments were approved by the Committee for Animal Welfare of Maastricht University.
# Mice were anesthetized with isoflurane (induction 2.5%; maintenance 1.5%), a catheter was placed in a tail vein, and animals were positioned in the SPECT camera (MILabs, Utrecht, The Netherlands). Prior to image acquisition, a bolus injection of ^99mTc-sestamibi and ^111In-coNGR or ^111In-co(NGR)4 was given intravenously (i.v.) in a maximum volume of 200 µL. Table S1 in Supplementary Material available online at https://doi.org/10.1155/2017/8638549 provides an overview of the average injected dose. Immediately after injection, 4 consecutive time frames of 15 min each were acquired. For image quantification we used the last of these frames.
# Acquired list mode data was reconstructed using MILabs reconstruction software (version 2.51) employing the POS-EM algorithm (6 iterations and 16 subsets, reconstructed at a voxel size of 0.4 mm). ^99mTc and ^111In images were reconstructed by selecting photo peak and background energy levels as described before.
# To allow quantification of imaging agent uptake, in vivo isotope-specific conversion factors (CF) were determined for the 0.6 mm collimator in a representative phantom with a known activity. Using the previously described method the following conversion factors (CF), CF99mTc 612 MBq/mL and CF111In 643 MBq/mL, were found.
# PMOD 3.7 cardiac tool PCARD (PMOD technologies, Zürich, Switzerland) was used to segment the heart in the 17-segment model. Uptake per segment was subsequently expressed as a mean standardized uptake value (SUVmean), also using the previously described method. For body weight, we assumed that 1 g equalled 1 mL.
# [3] = MI mice (n = 5), coNGR group, 7 days after LAD ligation
# [4] = MI mice (n = 8), co(NGR)4 group, 7 days after LAD ligation
# [5] = Sham-operated mice (n = 6), co(NGR)4 group, 7 days after surgery
smiles,measurement,setting,value
"CC(=O)N[C@H]1CSSC[C@@H](C(=O)NCC(=O)NCC(=O)N[C@@H](CCCCNC(=O)[C@@H](N)CSC2CC(=O)N(CC3CCC(C(=O)NCCCCC(C(=O)O)N(CCN(CC(=O)O)CC(=O)O)CCN(CC(=O)O)CC(=O)O)CC3)C2=O)C(N)=O)NC(=O)[C@H](CCCNC(=N)N)NC(=O)CNC(=O)[C@H](CC(N)=O)NC1=O (stereo partly drawn) [cNGR, cyclic(NAc-Cys-Asn-Gly-Arg-Cys-Gly-Gly-Lys)] (Ac-CNGRCGGK(X1)-NH2; disulfide 1-5)",remaining at 50 min,in vitro,7.55%
same,logP2,[1],−4.17 ± 0.01
[C-]#[N+]CC(C)(C)OC.[C-]#[N+]CC(C)(C)OC.[C-]#[N+]CC(C)(C)OC.[C-]#[N+]CC(C)(C)OC.[C-]#[N+]CC(C)(C)OC.[C-]#[N+]CC(C)(C)OC.[Tc] [^99mTc-sestamibi],"SUV of 99mTc-sestamibi, segment 1. Basal anterior",[2]; [3],2.46 ± 0.45
same,"SUV of 99mTc-sestamibi, segment 2. Basal anteroseptal",[2]; [3],2.28 ± 0.39
same,"SUV of 99mTc-sestamibi, segment 3. Basal inferoseptal",[2]; [3],2.33 ± 0.38
same,"SUV of 99mTc-sestamibi, segment 4. Basal inferior",[2]; [3],2.60 ± 0.56
same,"SUV of 99mTc-sestamibi, segment 5. Basal inferolateral",[2]; [3],2.23 ± 0.63
same,"SUV of 99mTc-sestamibi, segment 6. Basal anterolateral",[2]; [3],2.14 ± 0.52
same,"SUV of 99mTc-sestamibi, segment 7. Mid anterior",[2]; [3],1.41 ± 0.28
same,"SUV of 99mTc-sestamibi, segment 8. Mid anteroseptal",[2]; [3],2.46 ± 0.39
same,"SUV of 99mTc-sestamibi, segment 9. Mid inferoseptal",[2]; [3],2.27 ± 0.53
same,"SUV of 99mTc-sestamibi, segment 10. Mid inferior",[2]; [3],1.64 ± 0.67
same,"SUV of 99mTc-sestamibi, segment 11. Mid inferolateral",[2]; [3],0.75 ± 0.24
same,"SUV of 99mTc-sestamibi, segment 12. Mid anterolateral",[2]; [3],0.42 ± 0.09
same,"SUV of 99mTc-sestamibi, segment 13. Apical anterior",[2]; [3],0.71 ± 0.30
same,"SUV of 99mTc-sestamibi, segment 14. Apical septal",[2]; [3],1.67 ± 0.39
same,"SUV of 99mTc-sestamibi, segment 15. Apical inferior",[2]; [3],1.30 ± 0.31
same,"SUV of 99mTc-sestamibi, segment 16. Apical lateral",[2]; [3],0.59 ± 0.26
same,"SUV of 99mTc-sestamibi, segment 17. Apex",[2]; [3],0.98 ± 0.35
same,"SUV of 99mTc-sestamibi, segment 1. Basal anterior",[2]; [4],2.60 ± 0.70
same,"SUV of 99mTc-sestamibi, segment 2. Basal anteroseptal",[2]; [4],3.68 ± 0.42
same,"SUV of 99mTc-sestamibi, segment 3. Basal inferoseptal",[2]; [4],3.97 ± 0.49
same,"SUV of 99mTc-sestamibi, segment 4. Basal inferior",[2]; [4],3.06 ± 0.54
same,"SUV of 99mTc-sestamibi, segment 5. Basal inferolateral",[2]; [4],1.66 ± 0.47
same,"SUV of 99mTc-sestamibi, segment 6. Basal anterolateral",[2]; [4],1.60 ± 0.55
same,"SUV of 99mTc-sestamibi, segment 7. Mid anterior",[2]; [4],1.35 ± 0.31
same,"SUV of 99mTc-sestamibi, segment 8. Mid anteroseptal",[2]; [4],3.56 ± 0.47
same,"SUV of 99mTc-sestamibi, segment 9. Mid inferoseptal",[2]; [4],3.57 ± 0.68
same,"SUV of 99mTc-sestamibi, segment 10. Mid inferior",[2]; [4],2.21 ± 0.52
same,"SUV of 99mTc-sestamibi, segment 11. Mid inferolateral",[2]; [4],0.68 ± 0.07
same,"SUV of 99mTc-sestamibi, segment 12. Mid anterolateral",[2]; [4],0.62 ± 0.07
same,"SUV of 99mTc-sestamibi, segment 13. Apical anterior",[2]; [4],1.04 ± 0.25
same,"SUV of 99mTc-sestamibi, segment 14. Apical septal",[2]; [4],2.68 ± 0.30
same,"SUV of 99mTc-sestamibi, segment 15. Apical inferior",[2]; [4],2.06 ± 0.24
same,"SUV of 99mTc-sestamibi, segment 16. Apical lateral",[2]; [4],0.67 ± 0.11
same,"SUV of 99mTc-sestamibi, segment 17. Apex",[2]; [4],1.25 ± 0.32
same,"SUV of 99mTc-sestamibi, segment 1. Basal anterior",[2]; [5],2.91 ± .026
same,"SUV of 99mTc-sestamibi, segment 2. Basal anteroseptal",[2]; [5],2.72 ± 0.32
same,"SUV of 99mTc-sestamibi, segment 3. Basal inferoseptal",[2]; [5],2.89 ± 0.33
same,"SUV of 99mTc-sestamibi, segment 4. Basal inferior",[2]; [5],3.07 ± 0.33
same,"SUV of 99mTc-sestamibi, segment 5. Basal inferolateral",[2]; [5],3.03 ± 0.30
same,"SUV of 99mTc-sestamibi, segment 6. Basal anterolateral",[2]; [5],2.89 ± 0.20
same,"SUV of 99mTc-sestamibi, segment 7. Mid anterior",[2]; [5],3.00 ± 0.22
same,"SUV of 99mTc-sestamibi, segment 8. Mid anteroseptal",[2]; [5],3.10 ± 0.28
same,"SUV of 99mTc-sestamibi, segment 9. Mid inferoseptal",[2]; [5],3.16 ± 0.26
same,"SUV of 99mTc-sestamibi, segment 10. Mid inferior",[2]; [5],3.03 ± 0.29
same,"SUV of 99mTc-sestamibi, segment 11. Mid inferolateral",[2]; [5],3.06 ± 0.34
same,"SUV of 99mTc-sestamibi, segment 12. Mid anterolateral",[2]; [5],2.77 ± 0.22
same,"SUV of 99mTc-sestamibi, segment 13. Apical anterior",[2]; [5],2.93 ± 0.22
same,"SUV of 99mTc-sestamibi, segment 14. Apical septal",[2]; [5],3.23 ± 0.24
same,"SUV of 99mTc-sestamibi, segment 15. Apical inferior",[2]; [5],2.88 ± 0.32
same,"SUV of 99mTc-sestamibi, segment 16. Apical lateral",[2]; [5],2.44 ± 0.20
same,"SUV of 99mTc-sestamibi, segment 17. Apex",[2]; [5],2.71 ± 0.25

# — PMC5674494, “Use of Cyclic Backbone NGR-Based SPECT to Increase Efficacy of Postmyocardial Infarction Angiogenesis Imaging” (Contrast Media & Molecular Imaging, 2017)
